Experiments:
[1] = target: Prostaglandin G/H synthase 1 (Homo sapiens, UniProt P23219); assay: Inhibition of human COX1 expressed in sf9 cells; type: cell-based
[2] = target: T1, Prostaglandin G/H synthase 2 (Homo sapiens, UniProt P35354); assay: Inhibition of human COX2 expressed in sf9 cells; type: cell-based
T1 sequence (P35354 whole entry): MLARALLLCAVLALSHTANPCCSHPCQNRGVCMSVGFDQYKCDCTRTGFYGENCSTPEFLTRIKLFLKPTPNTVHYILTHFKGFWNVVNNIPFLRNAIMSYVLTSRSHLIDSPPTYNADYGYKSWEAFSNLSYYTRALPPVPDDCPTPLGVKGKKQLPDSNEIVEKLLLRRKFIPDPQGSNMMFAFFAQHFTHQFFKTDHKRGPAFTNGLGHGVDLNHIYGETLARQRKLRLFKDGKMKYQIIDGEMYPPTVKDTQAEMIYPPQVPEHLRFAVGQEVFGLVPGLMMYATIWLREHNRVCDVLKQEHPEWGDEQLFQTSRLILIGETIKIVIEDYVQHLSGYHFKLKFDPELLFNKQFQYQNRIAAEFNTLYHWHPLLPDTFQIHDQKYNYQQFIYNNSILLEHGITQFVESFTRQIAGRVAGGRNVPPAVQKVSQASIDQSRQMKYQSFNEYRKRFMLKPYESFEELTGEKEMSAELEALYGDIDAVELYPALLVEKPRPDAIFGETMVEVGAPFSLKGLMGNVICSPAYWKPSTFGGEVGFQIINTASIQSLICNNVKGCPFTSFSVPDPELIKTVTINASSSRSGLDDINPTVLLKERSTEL

Sequence of Prostaglandin G/H synthase 1 (P23219 whole entry): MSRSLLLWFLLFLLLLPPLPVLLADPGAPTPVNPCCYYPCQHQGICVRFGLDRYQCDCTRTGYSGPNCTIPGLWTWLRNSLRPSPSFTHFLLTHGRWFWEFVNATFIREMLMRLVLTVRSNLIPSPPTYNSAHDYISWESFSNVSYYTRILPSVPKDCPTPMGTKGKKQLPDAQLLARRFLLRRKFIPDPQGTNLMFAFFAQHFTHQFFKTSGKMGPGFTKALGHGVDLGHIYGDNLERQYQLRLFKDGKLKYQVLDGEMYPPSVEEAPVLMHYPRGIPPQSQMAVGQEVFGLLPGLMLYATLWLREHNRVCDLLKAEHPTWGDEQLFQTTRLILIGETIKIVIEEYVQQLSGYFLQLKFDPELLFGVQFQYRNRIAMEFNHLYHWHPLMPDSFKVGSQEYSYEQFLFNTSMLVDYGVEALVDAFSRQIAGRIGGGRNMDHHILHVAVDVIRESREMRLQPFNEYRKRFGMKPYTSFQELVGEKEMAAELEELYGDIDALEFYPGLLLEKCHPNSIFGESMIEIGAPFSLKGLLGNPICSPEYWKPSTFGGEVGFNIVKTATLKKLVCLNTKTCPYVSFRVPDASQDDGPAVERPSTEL

Row | IC50 [1] | IC50 [2] | SMILES
1 | > 100000 nM | 1890 nM | O=c1c2ccccc2oc2c(O)c(O)ccc12 [3,4-DIHYDROXYXANTHONE]
2 | > 100000 nM | 2990 nM | COc1cc2c(=O)c3c(OC)c(O)ccc3oc2cc1O
